Measured values from ChEMBL document CHEMBL5131475, “Metallo-β-lactamases inhibitor fisetin attenuates meropenem resistance in NDM-1-producing Escherichia coli” (Eur J Med Chem, 2022).
≈ marks a conversion by molar mass, not a printed value.

What was measured:
Format in all cases: functional
Conditions in all cases: time 18-24 hrs
[1] = system: Escherichia coli; assay: Antibacterial activity against NDM-1 positive Escherichia coli ZC-YN3 isolates assessed as inhibition of bacterial growth incubated for 18 to 24 hrs by CLSI based broth microdilution method
[2] = system: Escherichia coli; assay: Antibacterial activity against pET28a-NDM-1 positive Escherichia coli BL21(DE3) isolates assessed as inhibition of bacterial growth incubated for 18 to 24 hrs by CLSI based broth microdilution method
[3] = system: Escherichia coli; assay: Antibacterial activity against NDM-1 negative Escherichia coli BL21(DE3) pET28a isolates assessed as inhibition of bacterial growth incubated for 18 to 24 hrs by CLSI based broth microdilution method
[4] = system: Escherichia coli; assay: Antibacterial activity against NDM-1 positive MCR1 carrying Escherichia coli ZJ487 isolates assessed as inhibition of bacterial growth incubated for 18 to 24 hrs by CLSI based broth microdilution method
[5] = system: Escherichia coli; assay: Antibacterial activity against NDM-1 negative Escherichia coli ATCC25922 isolates assessed as inhibition of bacterial growth incubated for 18 to 24 hrs by CLSI based broth microdilution method

Compound | MIC [1] | MIC [2] | MIC [3] | MIC [4] | MIC [5]
C[C@H]1c2cccc(O)c2C(=O)C2=C(O)[C@]3(O)C(=O)C(C(N)=O)=C(O)[C@@H](N(C)C)[C@@H]3[C@@H](O)[C@@H]21.O [DOXYCYCLINE] | 64 µg/mL | 128 µg/mL | – | – | –
CO[C@H]1/C=C/O[C@@]2(C)Oc3c(C)c(O)c4c(O)c(c(/C=N/N5CCN(C)CC5)c(O)c4c3C2=O)NC(=O)/C(C)=C\C=C\[C@H](C)[C@H](O)[C@@H](C)[C@@H](O)[C@@H](C)[C@H](OC(C)=O)[C@@H]1C [RIFAMPIN] | 13.3 µg/mL (≈ 16.2 µM) | 1020 µg/mL (≈ 1240 µM) | – | – | –
CCC[C@@H]1C[C@@H](C(=O)N[C@@H]([C@H]2O[C@H](SC)[C@H](O)[C@@H](O)[C@H]2O)[C@@H](C)O)N(C)C1 [LINCOMYCIN] | 1020 µg/mL (≈ 2510 µM) | 1020 µg/mL (≈ 2510 µM) | – | – | –
C[C@@H](O)[C@H]1C(=O)N2C(C(=O)O)=C(S[C@@H]3CN[C@H](C(=O)N(C)C)C3)[C@H](C)[C@H]12 [MEROPENEM] | 16 µg/mL (≈ 41.7 µM) | 37.3 µg/mL (≈ 97.3 µM) | 0.01 µg/mL (≈ 0.0261 µM) | 21.3 µg/mL (≈ 55.5 µM) | 0.01 µg/mL (≈ 0.0261 µM)
CO/N=C(\C(=O)N[C@@H]1C(=O)N2C(C(=O)O)=C(COC(C)=O)CS[C@H]12)c1csc(N)n1 [CEFOTAXIME] | 512 µg/mL (≈ 1120 µM) | 512 µg/mL (≈ 1120 µM) | – | – | –
CS(=O)(=O)c1ccc([C@@H](O)[C@@H](CF)NC(=O)C(Cl)Cl)cc1 [FLORFENICOL] | 427 µg/mL (≈ 1190 µM) | 1020 µg/mL (≈ 2850 µM) | – | – | –
COLISTIN | 1.33 µg/mL | 1.67 µg/mL | – | – | –
CN[C@H](CC(C)C)C(=O)N[C@H]1C(=O)N[C@@H](CC(N)=O)C(=O)N[C@H]2C(=O)N[C@H]3C(=O)N[C@H](C(=O)N[C@H](C(=O)O)c4cc(O)cc(O)c4-c4cc3ccc4O)[C@H](O)c3ccc(c(Cl)c3)Oc3cc2cc(c3O[C@@H]2O[C@H](CO)[C@@H](O)[C@H](O)[C@H]2O[C@H]2C[C@](C)(N)[C@H](O)[C@H](C)O2)Oc2ccc(cc2Cl)[C@H]1O [VANCOMYCIN] | 512 µg/mL (≈ 353 µM) | 683 µg/mL (≈ 471 µM) | – | – | –

Now from value to compound, other results behind:

MIC [1] | MIC [2] | Compound | MIC [3] | MIC [4] | MIC [5]
853 µg/mL (≈ 2570 µM) | 512 µg/mL (≈ 1540 µM) | CN[C@@H]1[C@H](O)[C@H](NC)[C@H]2O[C@@]3(O)C(=O)C[C@@H](C)O[C@H]3O[C@@H]2[C@H]1O [SPECTINOMYCIN] | – | – | –
853 µg/mL (≈ 2440 µM) | 853 µg/mL (≈ 2440 µM) | CC1(C)S[C@@H]2[C@H](NC(=O)[C@H](N)c3ccccc3)C(=O)N2[C@H]1C(=O)O [AMPICILLIN] | – | – | –
256 µg/mL (≈ 440 µM) | 53.3 µg/mL (≈ 91.6 µM) | CN[C@@H]1[C@H](O[C@H]2[C@H](O[C@H]3[C@H](O)[C@@H](O)[C@H](N=C(N)N)[C@@H](O)[C@@H]3N=C(N)N)O[C@@H](C)[C@]2(O)C=O)O[C@@H](CO)[C@H](O)[C@H]1O [STREPTOMYCIN] | – | – | –
26.7 µg/mL (≈ 89.2 µM) | 26.7 µg/mL (≈ 89.2 µM) | C[C@@H](O)[C@H]1C(=O)N2C(C(=O)O)=C(SCCNC=N)C[C@H]12 [IMIPENEM ANHYDROUS] | – | – | –
853 µg/mL (≈ 1760 µM) | 512 µg/mL (≈ 1060 µM) | NC[C@H]1O[C@H](O[C@H]2[C@H](O)[C@@H](O[C@H]3O[C@H](CO)[C@@H](O)[C@H](N)[C@H]3O)[C@H](N)C[C@@H]2N)[C@H](O)[C@@H](O)[C@@H]1O [KANAMYCIN] | – | – | –
128 µg/mL (≈ 288 µM) | 512 µg/mL (≈ 1150 µM) | CN(C)[C@@H]1C(O)=C(C(N)=O)C(=O)[C@@]2(O)C(O)=C3C(=O)c4c(O)cccc4[C@@](C)(O)[C@H]3C[C@@H]12 [TETRACYCLINE] | – | – | –
